Assay results reported in patent US12398093B2, “Compounds and methods for treating inflammatory disorders” (Board of Supervisors of Louisiana State University and …, priority 2019, dated 2025).
“And” between values parts separate entries of the source, which are not always exact repeats. Equal entries are not always repeated. Where two headings read alike, the source gives them in different places. Marks after values point to notes of the source that are not given here.

Legend:
[1] = In vitro protein binding in human plasma; format: in vitro ADME; conditions: 1.0×10^−5 M; for % Protein bound, 1st / % Protein bound, 2nd / % Protein bound, Mean: human plasma; for recovery: human, plasma, protein binding assay
5-HT2AR-Tango construct = target: T1, 5-HT2AR-Tango construct (Homo sapiens, UniProt P28223); test: β-arrestin-2 recruitment, PRESTO-Tango assay in HTLA cells; format: cell-based; conditions: for Emax: HTLA
T1 construct: expressed in transfected cells; host or cells: HTLA cells (transient transfection)

[2] = In vitro metabolism, intrinsic clearance in human liver microsomes; format: in vitro ADME; conditions: for Clint: human liver microsomes intrinsic clearance; for Clint / half-life / % Compound Remaining, 1st / % Compound Remaining, 2nd / % Compound Remaining, Mean: 1.0×10^−7 M; for microsomal CLint / half-life: human, human liver microsomes
C57BL/6J mice = test: Head twitch response (HTR), magnetometer detection; format: in vivo; conditions: for HTR counts, mean: 30-minute session; for ED50: Mus musculus
Protocol: The head twitch response (HTR) can be used as a behavioral proxy in rodents for human hallucinogenic effects, because it can reliably distinguish hallucinogenic and non-hallucinogenic 5-HT2A receptor agonists. […] HTR studies were conducted with (R)-DOI and 2C-iBu in C57BL/6J mice.
Male C57BL/6J mice (6-8 weeks old) obtained from Jackson Laboratories (Bar Harbor, ME, USA) were housed at up to four per cage in a climate-controlled room on a reverse-light cycle (lights on at 1900 h, off at 0700 h) and were provided with ad libitum access to food and water, except during behavioral testing. Testing was conducted between 1000 and 1800 h.
Drug doses are based on the equivalent freebase weight. Test substances were dissolved in sterile isotonic saline and injected subcutaneously (SC) at a volume of 5 mL/kg.
The HTR was assessed using a head-mounted magnet and a magnetometer detection coil, according to known methods. Briefly, mice were anesthetized, a small incision was made in the scalp, and a small neodymium magnet was attached to the dorsal surface of the cranium using dental cement. Following a two-week recovery period, HTR experiments were carried out in a well-lit room with at least seven days between sessions to avoid carryover effects. Test compounds were injected immediately prior to testing. Mice were injected with drug or vehicle and then HTR activity was recorded in a glass cylinder surrounded by a magnetometer coil. Coil voltage was low-pass filtered (2-10 kHz cutoff frequency), amplified, and digitized (20 kHz sampling rate) using a Powerlab/8SP with LabChart v 7.3.2 (ADInstruments, Colorado Springs, CO, USA), then filtered off-line (40-200 Hz band-pass).
Experiment 1. Five groups of mice (n=6/group, 30 total) were treated with vehicle or R-DOI (0.1, 0.3, 1, or 3 mg/kg) and HTR activity was assessed for 30 minutes. Experiment 2. Five groups of mice (n=6-7/group, 34 total) were treated with vehicle or 2C-iBu (0.3, 1, 3, or 10 mg/kg) and HTR activity was assessed for 30 minutes. Experiment 3. Two groups of mice (n=7/group, 14 total) were treated with R-DOI (1 mg/kg) or 2C-iBu (3 mg/kg) and HTR activity was assessed for 210 minutes.
For Experiment 1 and Experiment 2, the entire thirty-minute recordings were examined for head twitches, head twitch counts were analyzed using one-way analyses of variance (ANOVA). In addition, HTR counts were analyzed in two-minute time blocks using one-way ANOVAs, with time as a repeated measure. Post hoc pairwise comparisons between selected groups were performed using Tukey's studentized range method.
A Gaussian distribution was used to fit biphasic HTR dose-response data:
[formula] [formula] In these equations, E is the drug effect, Baseline is the response in the control group, Range is the distance from Baseline to the top of the curve, [A] is the dose of the drug, and midA is the logarithm of the dose corresponding to the top of the curve. To determine whether potency differences exist between individual compounds, ED50 values were compared using an extra-sum-of-squares F-test.
For Experiment 3, HTR counts were examined in 5-min time blocks. To determine the half-life of drug responses, the descending phase of the data was fitted with a one-phase exponential decay function. The responses produced by R-(−)-DOI (1 mg/kg) or ELEU02 were analyzed using one-way ANOVA, with time as a repeated measure. Post hoc pairwise comparisons between groups were performed using Sidak's multiple comparisons test.

5-HTB = 5-HTB (Rattus norvegicus, UniProt P28564); test: Radioligand binding, antagonist radioligand [125I]CYP
5-HT2C (h) = target: T2, 5-HT2C (h) (Homo sapiens, UniProt P28335); test: Radioligand binding, agonist radioligand [125I](±)DOI
T2 sequence (P28335 33-458): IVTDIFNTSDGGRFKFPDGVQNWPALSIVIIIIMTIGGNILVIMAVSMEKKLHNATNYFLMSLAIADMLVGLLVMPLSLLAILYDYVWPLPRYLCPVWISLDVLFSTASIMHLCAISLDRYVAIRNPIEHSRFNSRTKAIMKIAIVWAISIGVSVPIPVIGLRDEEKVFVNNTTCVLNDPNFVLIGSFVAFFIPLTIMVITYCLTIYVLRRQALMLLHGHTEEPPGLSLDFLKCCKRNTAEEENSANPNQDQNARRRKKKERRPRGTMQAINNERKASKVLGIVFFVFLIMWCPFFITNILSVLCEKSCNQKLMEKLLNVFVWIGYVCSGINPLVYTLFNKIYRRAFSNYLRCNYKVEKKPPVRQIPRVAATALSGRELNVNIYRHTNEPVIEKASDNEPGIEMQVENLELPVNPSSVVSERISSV

[3] = read-out: EMAX (%) beta arrestin recruitment
[4] = read-out: Half-life (minutes), 1st
[5] = read-out: Half-life (minutes), 2nd
[6] = read-out: Half-life (minutes), Mean
[7] = sc, read-out: ED50 for induction of HTR, based on molar mass
[8] = SC, freebase weight, read-out: ED50 for induction of HTR

T1 sequence (P28223 whole entry, added parts left off): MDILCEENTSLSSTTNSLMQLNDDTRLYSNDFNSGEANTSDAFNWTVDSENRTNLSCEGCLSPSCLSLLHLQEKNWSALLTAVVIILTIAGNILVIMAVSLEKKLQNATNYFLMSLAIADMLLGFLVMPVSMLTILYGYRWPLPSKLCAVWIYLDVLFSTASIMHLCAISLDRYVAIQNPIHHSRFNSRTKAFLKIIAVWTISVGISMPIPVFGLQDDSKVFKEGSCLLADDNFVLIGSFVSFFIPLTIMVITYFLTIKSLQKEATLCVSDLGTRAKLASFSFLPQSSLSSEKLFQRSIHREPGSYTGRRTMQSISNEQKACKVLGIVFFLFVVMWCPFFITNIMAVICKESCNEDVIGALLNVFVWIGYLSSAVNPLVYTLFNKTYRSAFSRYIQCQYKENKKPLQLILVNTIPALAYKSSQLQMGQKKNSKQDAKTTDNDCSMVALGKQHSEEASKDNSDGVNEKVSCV
T1 sequence (P32121 whole entry partner): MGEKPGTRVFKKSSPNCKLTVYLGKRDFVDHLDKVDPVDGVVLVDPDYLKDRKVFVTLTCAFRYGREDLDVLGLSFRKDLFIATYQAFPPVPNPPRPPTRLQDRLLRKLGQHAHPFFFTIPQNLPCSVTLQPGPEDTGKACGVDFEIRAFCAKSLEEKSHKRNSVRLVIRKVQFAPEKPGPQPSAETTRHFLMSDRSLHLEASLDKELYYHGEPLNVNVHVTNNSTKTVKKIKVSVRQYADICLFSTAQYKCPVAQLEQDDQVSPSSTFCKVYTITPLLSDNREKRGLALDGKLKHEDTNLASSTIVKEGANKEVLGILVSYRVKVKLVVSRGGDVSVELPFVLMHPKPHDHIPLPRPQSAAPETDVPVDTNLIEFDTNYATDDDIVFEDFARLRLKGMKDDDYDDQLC
Sequence of 5-HTB (P28564 whole entry): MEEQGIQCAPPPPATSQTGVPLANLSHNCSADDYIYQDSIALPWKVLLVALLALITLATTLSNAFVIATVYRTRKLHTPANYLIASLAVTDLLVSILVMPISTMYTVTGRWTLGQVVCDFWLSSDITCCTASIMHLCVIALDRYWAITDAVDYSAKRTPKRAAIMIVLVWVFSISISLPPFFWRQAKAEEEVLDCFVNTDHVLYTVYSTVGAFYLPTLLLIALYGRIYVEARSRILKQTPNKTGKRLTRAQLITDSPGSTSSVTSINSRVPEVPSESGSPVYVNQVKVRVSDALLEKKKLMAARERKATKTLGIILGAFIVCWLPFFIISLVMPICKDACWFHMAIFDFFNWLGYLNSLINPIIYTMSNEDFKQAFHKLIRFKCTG

Q: For COc1cc(CC(C)C)c(OC)cc1CCN [2C-iBu, 2,5-dimethoxy-4-isobutylphenethylamine], which “% Protein bound, 1st” value [1] is on record?
A: 73.7%

Q: And the “% Protein bound, 2nd” value [1]?
A: 74.5%

Q: What about the “% Protein bound, Mean” value [1] of the same molecule?
A: 74%

Q: And the recovery ([1]; read-out: % Recovery, 1st)?
A: 107%

Q: And the recovery ([1]; read-out: % Recovery, 2nd)?
A: 105%

Q: What about the recovery ([1]; read-out: % Recovery, Mean) of the same molecule?
A: 106%

Q: And the EC50 (5-HT2AR-Tango construct)?
A: 13.5 nM

Q: What about the Emax (5-HT2AR-Tango construct; Table 3, read-out: EMAX β-arrestin-2) of the same molecule?
A: 77%

Q: What about the Emax (5-HT2AR-Tango construct; [3]) of the same molecule?
A: 57.4%

Q: And the Clint [2]?
A: <115.5

Q: And the microsomal CLint [2]?
A: < 116 µL/min/mg

Q: What about the half-life [2, 4] of the same molecule?
A: > 60 min

Q: And the half-life [2, 5]?
A: 1020 min

Q: And the half-life [2, 6]?
A: > 60 min

Q: And the “% Compound Remaining, 1st” value ([2]; incubation 0 minutes)?
A: 100%

Q: What about the “% Compound Remaining, 2nd” value ([2]; incubation 0 minutes) of the same molecule?
A: 100%

Q: And the “% Compound Remaining, Mean” value ([2]; incubation 0 minutes)?
A: 100%

Q: What about the “% Compound Remaining, 1st” value ([2]; incubation 15 minutes) of the same molecule?
A: 91.0%

Q: And the “% Compound Remaining, 2nd” value ([2]; incubation 15 minutes)?
A: {126.7} %

Q: What about the “% Compound Remaining, Mean” value ([2]; incubation 15 minutes) of the same molecule?
A: 91%

Q: What about the “% Compound Remaining, 1st” value ([2]; incubation 30 minutes) of the same molecule?
A: 113.6%

Q: What about the “% Compound Remaining, 2nd” value ([2]; incubation 30 minutes) of the same molecule?
A: 114.2%

Q: What about the “% Compound Remaining, Mean” value ([2]; incubation 30 minutes) of the same molecule?
A: 114%

Q: And the “% Compound Remaining, 1st” value ([2]; incubation 45 minutes)?
A: 105.3%

Q: What about the “% Compound Remaining, 2nd” value ([2]; incubation 45 minutes) of the same molecule?
A: 106.5%

Q: And the “% Compound Remaining, Mean” value ([2]; incubation 45 minutes)?
A: 106%

Q: And the “% Compound Remaining, 1st” value ([2]; incubation 60 minutes)?
A: 94.1%

Q: And the “% Compound Remaining, 2nd” value ([2]; incubation 60 minutes)?
A: 94.2%

Q: And the “% Compound Remaining, Mean” value ([2]; incubation 60 minutes)?
A: 94%

Q: And the “HTR counts, mean” value (C57BL/6J mice; 0.3 mg/kg SC)?
A: 30.8 counts/30 min

Q: What about the “HTR counts, mean” value (C57BL/6J mice; 1 mg/kg SC) of the same molecule?
A: 74.4 ** counts/30 min

Q: And the “HTR counts, mean” value (C57BL/6J mice; 3 mg/kg SC)?
A: 111.1±4.7 counts/30 min and 111.1 ** counts/30 min

Q: What about the “HTR counts, mean” value (C57BL/6J mice; 10 mg/kg SC) of the same molecule?
A: 43.4* counts/30 min

Q: What about the “Peak HTR counts” value (C57BL/6J mice; Experiment 3, 3 mg/kg SC) of the same molecule?
A: 20.1±3.5 counts/5 min

Q: And the ED50 (C57BL/6J mice; [7])?
A: 2.17 µmol/kg

Q: What about the ED50 (C57BL/6J mice; [8]) of the same molecule?
A: 0.7 mg/kg

Q: What about the “fold lower behavioral potency than R-DOI” value (C57BL/6J mice; ratio of HTR ED50 values (μmol/kg)) of the same molecule?
A: ~3 fold

Q: And the Ki (5-HTB)?
A: 50.1 nM

Q: And the Ki (5-HT2C (h))?
A: 0.251 nM

Q: With COc1cc(C[C@@H](C)N)c(OC)cc1I [R-DOI] as the molecule, how does the “% Protein bound, 1st” value [1] read?
A: 47.5%

Q: What about the “% Protein bound, 2nd” value [1] of the same molecule?
A: 49.6%

Q: And the “% Protein bound, Mean” value [1]?
A: 49%

Q: What about the recovery ([1]; read-out: % Recovery, 1st) of the same molecule?
A: 126%

Q: What about the recovery ([1]; read-out: % Recovery, 2nd) of the same molecule?
A: 126%

Q: And the recovery ([1]; read-out: % Recovery, Mean)?
A: 126%

Q: And the Emax (5-HT2AR-Tango construct; [3])?
A: 71.8%

Q: What about the Clint [2] of the same molecule?
A: <115.5

Q: And the microsomal CLint [2]?
A: < 116 µL/min/mg

Q: What about the half-life [2, 4] of the same molecule?
A: 139 min

Q: What about the half-life [2, 5] of the same molecule?
A: 188 min

Q: And the half-life [2, 6]?
A: > 60 min

Q: And the “% Compound Remaining, 1st” value ([2]; incubation 0 minutes)?
A: 100%

Q: What about the “% Compound Remaining, 2nd” value ([2]; incubation 0 minutes) of the same molecule?
A: 100%

Q: What about the “% Compound Remaining, Mean” value ([2]; incubation 0 minutes) of the same molecule?
A: 100%

Q: And the “% Compound Remaining, 1st” value ([2]; incubation 15 minutes)?
A: 90.0%

Q: And the “% Compound Remaining, 2nd” value ([2]; incubation 15 minutes)?
A: 101.6%

Q: What about the “% Compound Remaining, Mean” value ([2]; incubation 15 minutes) of the same molecule?
A: 96%

Q: What about the “% Compound Remaining, 1st” value ([2]; incubation 30 minutes) of the same molecule?
A: 79.6%

Q: And the “% Compound Remaining, 2nd” value ([2]; incubation 30 minutes)?
A: 105.3%

Q: And the “% Compound Remaining, Mean” value ([2]; incubation 30 minutes)?
A: 92%

Q: And the “% Compound Remaining, 1st” value ([2]; incubation 45 minutes)?
A: 77.0%

Q: And the “% Compound Remaining, 2nd” value ([2]; incubation 45 minutes)?
A: 82.1%

Q: What about the “% Compound Remaining, Mean” value ([2]; incubation 45 minutes) of the same molecule?
A: 80%

Q: And the “% Compound Remaining, 1st” value ([2]; incubation 60 minutes)?
A: 74.3%

Q: And the “% Compound Remaining, 2nd” value ([2]; incubation 60 minutes)?
A: {91.4} %

Q: And the “% Compound Remaining, Mean” value ([2]; incubation 60 minutes)?
A: 74%

Q: And the “HTR counts, mean” value (C57BL/6J mice; 0.1 mg/kg SC)?
A: 46.5 counts/30 min

Q: What about the “HTR counts, mean” value (C57BL/6J mice; 0.3 mg/kg SC) of the same molecule?
A: 78.8 ** counts/30 min

Q: What about the “HTR counts, mean” value (C57BL/6J mice; 1 mg/kg SC) of the same molecule?
A: 128.0±13.2 counts/30 min and 128.0 ** counts/30 min

Q: And the “HTR counts, mean” value (C57BL/6J mice; 3 mg/kg SC)?
A: 116.0 ** counts/30 min

Q: And the “Peak HTR counts” value (C57BL/6J mice; Experiment 3, 1 mg/kg SC)?
A: 23.3±3.5 counts/5 min

Q: What about the ED50 (C57BL/6J mice; [7]) of the same molecule?
A: 0.63 µmol/kg

Q: And the ED50 (C57BL/6J mice; [8])?
A: 0.2 mg/kg

Q: And the ED50 (C57BL/6J mice; administered IP, otherwise identical conditions, read-out: ED50 for induction of HTR)?
A: 0.66 µmol/kg

Q: What about the Ki (5-HTB) of the same molecule?
A: 2510 nM

Q: What about the Ki (5-HT2C (h)) of the same molecule?
A: 0.631 nM
